Reference: patent US8124793B2, “Derivatives of ethylene methanedisulfonate as cancer chemotherapeutic agents” (priority 2007, dated 2012)

Legend:
Type in all cases: cell-based
HOP-92 = experiment: NCI screen, growth of human tumor cells: Non-Small Cell Lung HOP-92
Outline: (§1)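 Percent-growth read-out from the NCI cancer cell screen; data annotated by cancer type and molar concentration, ≥60 points per compound.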

RPMI-8226 = experiment: NCI screen, growth of human tumor cells: Leukemia RPMI-8226
Outline: as §1

MOLT-4 = experiment: NCI screen, growth of human tumor cells: Leukemia MOLT-4; conditions: MOLT-4 (Leukemia), 10^−4 molar
Outline: as §1

CCRF-CEM = experiment: NCI screen, growth of human tumor cells: Leukemia CCRF-CEM; conditions: CCRF-CEM
Outline: as §1

MDA-MB-435 = experiment: NCI screen, growth of human tumor cells: Breast Cancer MDA-MB-435
Outline: as §1

ACHN = experiment: NCI screen, growth of human tumor cells: Renal Cancer ACHN; conditions: ACHN
Outline: as §1

LOXIMVI = experiment: NCI screen, growth of human tumor cells: Melanoma LOXIMVI; conditions: LOXIMVI
Outline: as §1

NCI-H23 = experiment: NCI screen, growth of human tumor cells: Non-Small Cell Lung NCI-H23
Outline: as §1

OVCAR-4 = experiment: NCI screen, growth of human tumor cells: Ovarian Cancer OVCAR-4; conditions: OVCAR-4, 10^−4 molar
Outline: as §1

MALME-3M = experiment: NCI screen, growth of human tumor cells: Melanoma MALME-3M; conditions: MALME-3M
Outline: as §1

EKVX = experiment: NCI screen, growth of human tumor cells: Non-Small Cell Lung EKVX; conditions: EKVX, 10^−4 molar
Outline: as §1

UACC-257 = experiment: NCI screen, growth of human tumor cells: Melanoma UACC-257; conditions: UACC-257, 10^−4 molar
Outline: as §1

OVCAR-5 = experiment: NCI screen, growth of human tumor cells: Ovarian Cancer OVCAR-5
Outline: as §1

OVCAR-3 = experiment: NCI screen, growth of human tumor cells: Ovarian Cancer OVCAR-3; conditions: OVCAR-3, 10^−4 molar
Outline: as §1

human cancer cells = experiment: NCI screen summary over the cancers tested (negative growth of human cancer cells); conditions: cancers with negative growth / cancers tested
Protocol: In the NCI screening process, each compound was tested and described by a minimum of 60 data points. The test data include, but are not limited to the type of cancer, the molar concentration used in the screen, and the percent growth of the cancer. In some cases, NMR and elemental analysis were used for structural assignment.
The derivatives in the tables are grouped using the same category as in the tables 1-6.

MCF7/ADR-RES = experiment: NCI screen, growth of human tumor cells: Breast Cancer MCF7/ADR-RES; conditions: MCF7/ADR-RES (Breast Cancer), 10^−4 molar
Outline: as §1

HCC-2998 = experiment: NCI screen, growth of human tumor cells: HCC-2998 (listed under Non-Small Cell Lung)
Outline: as §1

SNB-75 = experiment: NCI screen, growth of human tumor cells: CNS Cancer SNB-75
Outline: as §1

U-251 = experiment: NCI screen, growth of human tumor cells: CNS Cancer U-251
Outline: as §1

PC-3 = experiment: NCI screen, growth of human tumor cells: Prostate Cancer PC-3
Outline: as §1

SF-268 = experiment: NCI screen, growth of human tumor cells: CNS Cancer SF-268
Outline: as §1

HOP-62 = experiment: NCI screen, growth of human tumor cells: Non-Small Cell Lung HOP-62
Outline: as §1

BT-549 = experiment: NCI screen, growth of human tumor cells: Breast Cancer BT-549; conditions: BT-549, 10^−4 molar
Outline: as §1

MCF 7 = experiment: NCI screen, growth of human tumor cells: Breast Cancer MCF 7
Outline: as §1

AS49/ATCC = experiment: NCI screen, growth of human tumor cells: Non-Small Cell Lung AS49/ATCC; conditions: A549/ATCC, 10^−4 molar
Outline: as §1

UACC-62 = experiment: NCI screen, growth of human tumor cells: Melanoma UACC-62
Outline: as §1

SK-MEL-5 = experiment: NCI screen, growth of human tumor cells: Melanoma SK-MEL-5
Outline: as §1

SF-539 = experiment: NCI screen, growth of human tumor cells: CNS Cancer SF-539
Outline: as §1

SR = experiment: NCI screen, growth of human tumor cells: Leukemia SR; conditions: SR
Outline: as §1

NCI-H460 = experiment: NCI screen, growth of human tumor cells: Non-Small Cell Lung NCI-H460
Outline: as §1

SK-MEL-2 = experiment: NCI screen, growth of human tumor cells: Melanoma SK-MEL-2
Outline: as §1

NCI-H226 = experiment: NCI screen, growth of human tumor cells: Non-Small Cell Lung NCI-H226
Outline: as §1

HCT-116 = experiment: NCI screen, growth of human tumor cells: Colon Cancer HCT-116; conditions: HCT-116, 10^−4 molar
Outline: as §1

CAKI-1 = experiment: NCI screen, growth of human tumor cells: Renal Cancer CAKI-1; conditions: CAKI-1 (Renal Cancer), 10^−4 molar
Outline: as §1

HT29 = experiment: NCI screen, growth of human tumor cells: Colon Cancer HT29; conditions: HT29 (Colon Cancer), 10^−4 molar
Outline: as §1

KM12 = experiment: NCI screen, growth of human tumor cells: Colon Cancer KM12; conditions: KM12, 10^−4 molar
Outline: as §1

CC1=C(CC2S(=O)(=O)OCCOS2(=O)=O)C(=O)c2ccccc2C1=O [NSC 693874, ethylene (3-methyl-1,4-naphtho-2-quinoyl)-1,1-ethanedisulfonate]
% Growth (HOP-92; HOP-92, 10^−4 molar): −88% | % Growth (RPMI-8226; RPMI-8226, 10^−4 molar): −55% | percent of growth of human tumor cells (MOLT-4): −51% | % Growth (CCRF-CEM; 10^−4 molar): −49% | % Growth (CCRF-CEM; 10^−5 molar): 28% | % Growth (MDA-MB-435; MDA-MB-435, 10^−4 molar): −92% | % Growth (MDA-MB-435; MDA-MB-435, 10^−5 molar): 54% | % Growth (ACHN; 10^−4 molar): −100% | % Growth (ACHN; 10^−5 molar): 50% | % Growth (LOXIMVI; 10^−4 molar): −95% | % Growth (LOXIMVI; 10^−5 molar): 35% | % Growth (NCI-H23; NCI-H23, 10^−4 molar): −89% | % Growth (NCI-H23; NCI-H23, 10^−5 molar): 62% | % Growth (OVCAR-4): −89% | % Growth (MALME-3M; 10^−4 molar): −78% | % Growth (EKVX): −93% | % Growth (UACC-257): −100% | % Growth (OVCAR-5; OVCAR-5, 10^−4 molar): −98% | % Growth (OVCAR-3): −100% | Percentage of cancers showing negative growth cancers tested (human cancer cells; 10^−4 M conc.): 98% | Percentage of cancers showing negative growth cancers tested (human cancer cells; 10^−5 M conc.): 12% | percent of growth of human tumor cells (MCF7/ADR-RES): −41% | % Growth (HCC-2998; HCC-2998, 10^−4 molar): −100% | % Growth (HCC-2998; HCC-2998, 10^−5 molar): 50% | % Growth (SNB-75; SNB-75, 10^−4 molar): −96% | % Growth (SNB-75; SNB-75, 10^−5 molar): −21% | % Growth (SNB-75; SNB-75, 10^−6 molar): 6% | % Growth (SNB-75; SNB-75, 10^−7 molar): 27% | % Growth (SNB-75; SNB-75, 10^−8 molar): 6% | % Growth (U-251; U251, 10^−4 molar): −25% | % Growth (U-251; U251, 10^−5 molar): 57% | % Growth (PC-3; PC-3, 10^−4 molar): −80% | % Growth (SF-268; SF-268, 10^−4 molar): 10% | % Growth (SF-268; SF-268, 10^−5 molar): 49% | % Growth (HOP-62; HOP-62, 10^−4 molar): −94% | % Growth (BT-549): −100% | % Growth (MCF 7; MCF7, 10^−4 molar): −83% | % Growth (MCF 7; MCF7, 10^−5 molar): 56% | % Growth (AS49/ATCC): −93% | % Growth (UACC-62; UACC-62, 10^−4 molar): −92% | % Growth (UACC-62; UACC-62, 10^−5 molar): 48% | % Growth (SK-MEL-5; SK-MEL-5, 10^−4 molar): −100% | % Growth (SF-539; SF-539, 10^−4 molar): −100% | % Growth (SF-539; SF-539, 10^−5 molar): 51% | % Growth (SR; 10^−4 molar): −45% | % Growth (SR; 10^−5 molar): −15% | % Growth (SR; 10^−6 molar): 9% | % Growth (SR; 10^−7 molar): 48% | % Growth (SR; 10^−8 molar): 79% | % Growth (NCI-H460; NCI-H460, 10^−4 molar): −73% | % Growth (NCI-H460; NCI-H460, 10^−5 molar): 59% | % Growth (SK-MEL-2; SK-MEL-2, 10^−4 molar): −85% | % Growth (NCI-H226; NCI-H226, 10^−4 molar): −82% | % Growth (NCI-H226; NCI-H226, 10^−5 molar): 48%

CC(=O)C1(CC2=C(C)C(=O)c3ccccc3C2=O)S(=O)(=O)OCCOS1(=O)=O [NSC 701690]
% Growth (HOP-92; HOP-92, 10^−4 molar): −66% | % Growth (HOP-92; HOP-92, 10^−5 molar): 23% | % Growth (HOP-92; HOP-92, 10^−6 molar): 60% | percent of growth of human tumor cells (RPMI-8226; RPMI-8226 (Leukemia), 10^−4 molar): −18% | % Growth (HCT-116): −100% | % Growth (CCRF-CEM; 10^−4 molar): −73% | % Growth (CCRF-CEM; 10^−5 molar): 55% | % Growth (MDA-MB-435; MDA-MB-435, 10^−4 molar): −95% | % Growth (ACHN; 10^−4 molar): −77% | % Growth (LOXIMVI; 10^−4 molar): −100% | % Growth (LOXIMVI; 10^−5 molar): 36% | % Growth (NCI-H23; NCI-H23, 10^−4 molar): −91% | % Growth (OVCAR-4): −100% | percent of growth of human tumor cells (CAKI-1): −53% | % Growth (MALME-3M; 10^−4 molar): −100% | % Growth (MALME-3M; 10^−5 molar): 38% | % Growth (MALME-3M; 10^−6 molar): 43% | % Growth (EKVX): −91% | % Growth (UACC-257): −83% | percent of growth of human tumor cells (OVCAR-5; OVCAR-5 (Ovarian Cancer), 10^−4 molar): −53% | % Growth (OVCAR-3): −73% | percent of growth of human tumor cells (HT29): −25% | Percentage of cancers showing negative growth cancers tested (human cancer cells; 10^−4 M conc.): 100% | Percentage of cancers showing negative growth cancers tested (human cancer cells; 10^−5 M conc.): 5% | Percentage of cancers showing negative growth cancers tested (human cancer cells; 10^−6 M conc.): 14% | percent of growth of human tumor cells (MCF7/ADR-RES): −40% | % Growth (HCC-2998; HCC-2998, 10^−4 molar): −100% | % Growth (SNB-75; SNB-75, 10^−4 molar): −100% | % Growth (SNB-75; SNB-75, 10^−5 molar): 45% | % Growth (U-251; U251, 10^−4 molar): −100% | % Growth (U-251; U251, 10^−5 molar): 42% | % Growth (U-251; U251, 10^−6 molar): 53% | % Growth (U-251; U251, 10^−7 molar): 46% | % Growth (U-251; U251, 10^−8 molar): 62% | % Growth (PC-3; PC-3, 10^−4 molar): −38% | % Growth (PC-3; PC-3, 10^−5 molar): 52% | % Growth (PC-3; PC-3, 10^−6 molar): 59% | % Growth (PC-3; PC-3, 10^−7 molar): 28% | % Growth (PC-3; PC-3, 10^−8 molar): 28% | % Growth (SF-268; SF-268, 10^−4 molar): −100% | % Growth (SF-268; SF-268, 10^−5 molar): 40% | % Growth (SF-268; SF-268, 10^−6 molar): 65% | % Growth (HOP-62; HOP-62, 10^−4 molar): −92% | % Growth (HOP-62; HOP-62, 10^−5 molar): 52% | % Growth (KM12): −71% | % Growth (BT-549): −100% | % Growth (MCF 7; MCF7, 10^−4 molar): −100% | % Growth (AS49/ATCC): −97% | percent of growth of human tumor cells (UACC-62; UACC-62 (Melanoma), 10^−4 molar): −57% | % Growth (SK-MEL-5; SK-MEL-5, 10^−4 molar): −100% | % Growth (SK-MEL-5; SK-MEL-5, 10^−5 molar): 58% | % Growth (SF-539; SF-539, 10^−4 molar): −100% | % Growth (SF-539; SF-539, 10^−5 molar): 44% | % Growth (SR; 10^−4 molar): −100% | % Growth (SR; 10^−5 molar): −8% | % Growth (SR; 10^−6 molar): 19% | % Growth (NCI-H460; NCI-H460, 10^−4 molar): −100% | % Growth (NCI-H460; NCI-H460, 10^−5 molar): 42% | % Growth (SK-MEL-2; SK-MEL-2, 10^−4 molar): −73% | % Growth (SK-MEL-2; SK-MEL-2, 10^−5 molar): 7% | % Growth (SK-MEL-2; SK-MEL-2, 10^−6 molar): −2% | % Growth (SK-MEL-2; SK-MEL-2, 10^−7 molar): −8% | % Growth (SK-MEL-2; SK-MEL-2, 10^−8 molar): −3%
